Reference: US20260364210A1, “COMPOSITIONS AND METHODS FOR TRANSGLUTAMINASE-MEDIATED ENDOCYTOSIS” (The Board of Trustees of the Leland Stanford Junior …, priority 2022, published 2026)
Starred links: 1 amine or outer side, 2 acyl side, 3 side chain; linkers in the order of their positions; H or OH if unused. Non-standard residues stand in square brackets, D forms with d. Residues, ends and D or L forms follow the SMILES beside them. Groups on a side chain read outwards from the residue. *: point of attachment. Biotin = O=C1N[C@H]2[C@H](CS[C@H]2CCCCC(=O)*)N1; X1 = CN(C)C(=O)/C=C/CC[C@H](N[*:1])C(=O)[*:2]; PEG4 = NCCOCCOCCOCCOCCC(=O)O; Dab = NCC[C@H](N)C(=O)O

Assays:
[1] = Endocytosis of fluorescent streptavidin by NRK cells; type: cell-based, rat; settings: 2 μM HB2110, 1 μM Cy5-conjugated streptavidin
Description: FIG. 11: (A) Treating NRK cells with increasing concentrations of HB-3-003 in the presence of fluorescently tagged streptavidin leads to increased internalization of streptavidin after a 90 min treatment. (B) Quantification of dose response.
In order to determine the ability of this pathway to clear specifically targeted proteins from the extracellular environment, we synthesized a pentapeptide harboring the electrophilic warhead and a PEG-4 biotin conjugated to the DAB substituted Y amino acid (HB2110). Streptavidin is expected to bind to the biotin arm of the probe, and thus be endocytosed along with the rest of the complex as previously described. To test this hypothesis NRK cells were treated with 2 μM HB2110 and 1 μM Cy5-conjugated streptavidin.
We also synthesized the equivalent pentapeptide harbouring a Gln residue in the place of the electrophilic warhead, with biotin conjugated to the DAB substituted Y amino acid through a PEG linker (HB3-3). We then assed the ability of cells to endocytose fluorescent streptavidin in the presence of HB3-3 and α2M.

[2] = tested on: normal rat kidney (NRK) cells; test: Uptake of fluorescent probe by NRK cells with or without α2M; type: cell-based
Description: (§1) (C) Fluorescently tagged α2M colocalizes strongly with HB-230.
FIG. 15. Uptake of HB-2121.
Puncta of two distinct sizes were observed.
To verify that HB230 internalization was dependent on TG2 activity, HB258 was designed and synthesized as a control probe. This dihydro-analog is otherwise identical to HB230 but lacks its electrophilic warhead and is therefore unable to irreversibly bond to the active site C277 residue of TG2.

LRP-1 knockout MEFs = test: Uptake of HB230 and α2M in LRP-1 knockout MEFs; type: cell-based; settings: exogenous TRX and betamethasone, with α2M
WT MEFs = test: Uptake of HB230 and α2M in wild-type MEFs; type: cell-based; settings: exogenous TRX and betamethasone, with α2M
Description: Low density lipoprotein (LDL) receptor-related protein 1 (LRP-1, a.k.a., (α2M receptor or CD91), a member of the LDL receptor family, is responsible for receptor-mediated endocytosis of α2M. Although this receptor is expressed on the surface of a wide range of cell types within the body, α2M endocytosis by LRP-1 is only triggered when this ubiquitous plasma protein undergoes a conformational change upon binding to its protease or non-protease ligands (Bres and Faissner, 2019). We sought to establish whether endocytosis of the ternary α2M-TG2-peptide complex was mediated by LRP-1 using pharmacologic inhibitors of clathrin mediated endocytosis.

trypsin = test: Metabolism by trypsin; type: in vitro ADME; settings: role: substrate
Description: (§2) HB-2121 is analogous to the TG2 inhibitor/probe HB-230 but with one modification; the primary amide C-terminus of HB-230 was replaced with a tertiary dimethyl amide. This change greatly enhances the gastrointestinal stability of the probe.

[3] = tested on: early endosome antigen-1 (EEA-1); test: Colocalization with early endosomes (EEA-1 antibody staining) in NRK cells; type: cell-based, rat; settings: co-incubated with α2M, 90 min
Description: (§3) To establish the identity of these large intracellular puncta, NRK cells were transfected with RFP tagged lysosomal-associated membrane protein (LAMP-1). Wild-type and transfected cells were co-incubated with α2M and HB230 for 90 min prior to fixation. To test the hypothesis that the large puncta corresponded to early endosomes, fixed wild-type cells were stained with an antibody against early endosome antigen-1 (EEA-1).

chymotrypsin = test: Metabolism by chymotrypsin; type: in vitro ADME; settings: role: substrate
Description: (§4) FIGS. 14A-14B. Metabolic stability of HB-230 and HB-2121. (A) HB-230 is transformed by chymotrypsin to give the C-terminal carboxylic acid. This metabolite is subsequently cleaved by carboxypeptidase to give the tetrapeptide without the terminal phenylalanine. (B) HB-2121 is stable to both chymotrypsin and carboxypeptidase mediated metabolism.
as §2

[4] = tested on: lysosomal-associated membrane protein (LAMP-1); test: Colocalization with RFP-tagged LAMP-1 in transfected NRK cells; type: cell-based, rat; settings: co-incubated with α2M, 90 min; large puncta
Description: as §3

elastase = test: Metabolism by elastase; type: in vitro ADME; settings: role: substrate
Description: as §2

carboxypeptidase = test: Metabolism by carboxypeptidase; type: in vitro ADME; settings: role: substrate, subsequent to chymotrypsin
Description: as §4, §2

α2M = test: Co-endocytosis of HB230 and fluorescent α2M in NRK cells; type: cell-based; settings: larger, but not smaller, puncta
Description: as §1
To obtain definitive evidence for co-endocytosis of HB230 and α2M, a fluorescent batch of α2M was prepared.

pepsin = test: Metabolism by pepsin; type: in vitro ADME; settings: role: substrate
Description: as §2

Row | Compound | colocalization of Cy5-streptavidin with α2M [1] | uptake by NRK cells in the presence of α2M ([2]; 100 μg/mL of α2M) | uptake by NRK cells ([2]; 1 TM (so in the source) exogenous probe, 90 min) | uptake by NRK cells on supplementation with α2M ([2]; NRK cells supplemented with increasing α2M) | formation of large co-stained puncta (LRP-1 knockout MEFs) | internalization of ternary complex (WT MEFs) | resistance to metabolism by trypsin (trypsin) | localization relative to EEA-1 [3] | metabolism by chymotrypsin (chymotrypsin) | co-localization with RFP-tagged LAMP-1 [4] | resistance to metabolism by elastase (elastase) | metabolism by carboxypeptidase (carboxypeptidase) | overlap with fluorescent α2M (α2M) | resistance to metabolism by pepsin (pepsin)
1 | CC(=O)N1CCC[C@H]1C(=O)N[C@@H](CC/C=C/C(=O)N(C)C)C(=O)N[C@@H](CCNC(=O)CCOCCOCCOCCOCCNC(=O)CCCC[C@@H]1SC[C@@H]2NC(=O)N[C@@H]21)C(=O)N1CCC[C@H]1C(=O)N[C@@H](Cc1ccccc1)C(N)=O [HB-2110] (Ac-P[X1][Dab]([PEG4-Biotin])PF-NH2) | found to colocalize with α2M in the lysosomal compartment |  |  |  |  |  |  |  |  |  |  |  |  | 
2 | CC(=O)N1CCC[C@H]1C(=O)N[C@@H](CC/C=C/C(=O)N(C)C)C(=O)N[C@@H](CCNC(=O)CCCCC[N+]1=C(/C=C/C=C/C=C2/N(C)c3ccc(S(=O)(=O)O)cc3C2(C)C)C(C)(C)c2cc(S(=O)(=O)[O-])ccc21)C(=O)N1CCC[C@H]1C(=O)N[C@@H](Cc1ccccc1)C(N)=O [HB-230, AcPro-HWE-(Dab-SCy5)-Pro-Phe] |  | robustly taken up | robust uptake | strong dose-dependent increase in uptake of HB230 up to ~100 μg/ml | marked defect in their ability to form large co-stained puncta | internalized the ternary complex | resistance to metabolism | appear in distinct sub-cellular compartments for the most part | enzymatic deamidation at the C-terminus (CONH2→CO2H) | strongly co-localizes with RFP-tagged LAMP-1 in the large puncta | resistance to metabolism | subsequent cleavage of the C-terminal phenylalanine | strong overlap | resistance to metabolism
